Measurements published in paper PMC5410289, “Stable H3 peptide was delivered by gold nanorods to inhibit LSD1 activation and induce human mesenchymal stem cells differentiation” (Oncotarget, 2017).

System: human BMSCs
Test: RT-PCR of stemness, differentiation and hepatic marker genes in human BMSCs
Format: cell-based
Details: human MSCs, GAPDH as normalization, treated 2, 7 and 14 days, combination effect seen during 7 days
Method: The human BMSCs were treated with PBS as control, AuNRs, AuNRs-SP nanocomplex, HGF alone and AuNRs-SP nanocomplex+HGF respectively for 2 days, 7 days and 14 days (Figure 7). Consequently, the expression of stemness gene Oct4, differentiation gene Sox17 and two hepatic marker genes, AFP and ck19 in the human MSCs were analyzed by RT-PCR. Comparing with PBS-treated group and AuNRs-treated group, human MSCs were induced to differentiate by AuNRs-SP nanocomplex with the decreased Oct4 and increased Sox17 (Figure 7A and 7B).
After human BMSCs were treated with PBS, AuNRs, HGF, AuNRs-SP and AuNRs-SP+HGF for 14 days, total RNA was extracted using TRIzol (Invitrogen, Carlsbad, CA, USA) and was quantitated by Nano Drop 2000. 2 μg total RNA was reverse transcribed to cDNA using a reverse transcriptase kit (Takara, Japan) according to the manufacturer's instructions. The mRNA levels of the target genes were quantified by RT-PCR, using GAPDH as normalization. Primers used in this study: Oct4 forward 5′-GACAACAATGAGAACCTTCAG-3′ and reverse 5′-CTGGCGCCGGTTACAGAACCA-3′; Sox17 forward 5′-GAGCCAAGGGCGAGTCCCGTA-3′ and reverse 5′-CCTTCCACGACTTGCCCAGCA-3′; AFP forward 5′-AGCGAGGAGAAATGGTCCGG-3′ and reverse 5′-GGA CAT CTT CAC CAT GTG-3′; Ck19 forward 5′-GCACTACAGCCACTACTACAC-3′ and reverse 5′-CTC ATG CGC AGA GCC TGT-3′.

HGF: hepatocyte growth factor
expression of hepatic marker gene AFP (mRNA): could not change the expression of AFP and ck19 until 14 days
expression of hepatic marker gene ck19 (mRNA): could not change the expression of AFP and ck19 until 14 days
